Primed or numbered codes have the meaning given here. No end group written: not given here. FITC′ = not defined here
Experiments:
[1] = tested on: A549 cells; assay: internalization of exosomes and ExoPep after GW4869, immunofluorescence staining; format: cell-based, human; settings: 10 μM GW4869
Method: Based on the above results, using 10 μM GW4869 inhibitor, the binding of the ExoPep peptide to the exosomes and internalization thereof were analyzed.

[2] = tested on: A549 cells; assay: cell viability CCK-8 assay with GW4869; format: cell-based, human; settings: various concentrations, 3 hours serum-free then 24 hours
[3] = tested on: exosome release of A549 cells; assay: inhibition of exosome release, western blotting of exosome markers; format: cell-based, human; settings: 10 μM compared to 2.5 and 5 μM
Method: In order to further identify the binding specificity of ExoPep to exosomes, GW4869 ([…], Sigma-Aldrich), a drug that inhibits the release of exosome out of cells, was treated to cells at various concentrations (2.5, 5, and 10 μM). Thereafter, exosomes were isolated, and electrophoresis and western blotting with antibodies against CD63, Alix, Tsg101, and calnexin (Abcam) were performed in the same manner as described in FIG. 1.

[4] = tested on: recipient cell A549; assay: internalization of peptide with blood-derived exosomes into cells; format: cell-based, human; settings: DiD-labeled exosomes, FITC-labeled peptide
Method: In order to observe internalization of peptides into cells, exosomes were labeled with DiD, reacted with FITC-labeled peptides, and treated to A549 cells. Cells were immobilized with 4% paraformaldehyde for 5 minutes and stained with DAPI, followed by observation under a microscope.

[5] = tested on: exosomes derived from normal HEK293 cells / HEK293 cells; assay: confocal microscopy of peptide internalization with exosomes; format: cell-based; settings: same manner
Method: (§1) Media of A549, HEK293, and MDA-MB231 cells were collected, exosomes were isolated through ultracentrifugation, and exosomes were labeled with DiD fluorescence reagent (red), followed by a reaction with ExoPep peptide (FITC label, green). After the reaction, the cells were immobilized, and the nuclei were stained with DAPI (blue) to analyze with confocal microscopy. More specifically, the isolated exosomes and DiD (1:200 dilution) were reacted on a stirrer at 37° C. for 30 minutes. After adding Exoquick reagent, condition was maintained at 4° C. for 30 minutes, and then DiD-labeled exosomes were precipitated by centrifugation at 13000 rpm for 3 minutes. Thereafter, a mixture of 10 uM FITC-conjugated peptide and DiD-labeled exosomes was reacted with A549 cells at 37° C. for 1 hour. After washing three times, immobilization was performed using 2% paraformaldehyde (PFA). After washing again, cells were treated with 4′-6-diamidino-2-phenylindole (DAPI) for nucleus staining. Finally, after mounting, observation was followed using a confocal microscope (Zeiss, Oberkochen, Germany).
On the other hand, the exosomes derived from normal HEK293 cells were treated in the same manner as described above and observed under a confocal microscope (Zeiss, Oberkochen, Germany).

[6] = tested on: A549 cell-derived exosomes; assay: inhibition of exosome internalization by magnetic removal of peptide-bound exosomes; format: cell-based, human; settings: exosomes pretreated with biotin-labeled peptide, then removed with magnet
Method: (§2) In order to further identify the binding specificity of the ExoPep peptide to the A549 cell-derived exosome, the exosomes were labeled with a DID fluorescent dye, reacted with the biotin-labeled ExoPep peptide, and then conjugated with biotin by reacting the labeled avidin with magnetic particles. The complex of exosomes/biotin-peptide/avidin-magnetic particles prepared by the reaction was captured and removed using a magnet, and the remaining exosomes were treated to recipient cells (FIG. 5A).

[7] = tested on: exosomes derived from A549 lung cancer cells; assay: flow cytometry binding of FITC-labeled peptide to exosomes; design: species or system human; settings: 4° C.
Description: (§3) 5 types of peptides (CTDTKIK, CRLSKKS, CRKVAKG, CRKRPAL, CAVRRKL) were synthesized based on the result of ELISA shown in FIG. 3. In order to investigate the binding of candidate peptides by FACS method, a peptide in which fluorescein isothiocyanate (FITC), a fluorescent substance, is conjugated to the carboxy terminus was synthesized by requesting Peptron Co. (Daegeon, Korea). Each peptide was synthesized by standard Fmoc method and purified by […]. In addition, FITC-labeled NSSSVDK peptide was used as a control.
(§4) In order to observe the peptide binding to the exosomes, biotin and exosomes were first combined in the same manner as described in FIG. 3, and then the exosomes were immobilized by binding with avidin beads. The exosome-bead complex was blocked for non-specific binding through treatment of 1% bovine serum albumin (BSA) dissolved in phosphate buffer for 30 minutes at room temperature. After washing, the FITC-labeled peptide was bound to the exosome-bead complex at 4° C. for 30 minutes. After the reaction, the binding of the peptide to the exosomes was analyzed using a flow cytometer.
On the other hand, in order to observe the peptide binding to the exosome-producing cells, 1×10^6 cells were first prepared. […] After the reaction, the binding of the peptide to the cells was analyzed using a flow cytometer.

[8] = tested on: red blood cells; assay: in vitro hemolysis assay; format: cell-based; settings: various concentrations up to a final concentration of 200 μM, 37° C., 1 hour
Method: Next, an in vitro hemolysis assay was performed. In vitro hemolysis assay, as an indicator of hemolysis of red blood cells after exposure to a drug or an agent, was conducted by measuring the hemoglobin release in plasma. This is an accurate, sensitive method to predict the hemolytic activity of a drug. Fresh blood was centrifuged at 500×g for 10 minutes, and the pellet of red blood cells was washed 3 times and re-suspended in 10 mM PBS in pH 7.4. Equal volumes of red blood cells were reacted with various concentrations of ExoPep peptide by stirring at 37° C. for 1 hour. The samples were then centrifuged at 4° C. at 500×g for 10 minutes. RBC lysis was measured by analyzing absorbance at OD 540 nm depending on the concentration of different peptides. […] The hemolytic activity of the peptide was calculated in a percentage using the following equation.
H=100×(OP−OB)/(OT−OB) Equation:
In the equation above, OP, OB, and OT represent optical density of the peptide solution at an indicated concentration, optical density of a buffer, and optical density of Triton X 100, respectively.

[9] = tested on: exosomes derived from HepG2 liver cancer cells; assay: flow cytometry binding of FITC-labeled peptide to exosomes; settings: 4° C.
Description: as §3, §4
(§5) On the other hand, in order to observe the peptide binding to the exosome-producing cells, 1×10^6 cells were first prepared. Each cell medium was treated with 1% BSA at 37° C. for 30 minutes. Thereafter, the FITC-labeled peptide was bound at 4° C. for 1 hour. After the reaction, the binding of the peptide to the cells was analyzed using a flow cytometer.

[10] = tested on: exosomes derived from normal MCF10A cells; assay: as above; settings: 4° C.
Description: as §3, §4, §5

[11] = tested on: exosomes derived from Panc-1 pancreatic cancer cells; assay: as above; settings: 4° C.
Description: as §3, §4, §5

[12] = tested on: exosomes derived from H460 lung cancer cells; assay: as above; settings: 4° C.
Description: as §3, §4, §5

[13] = tested on: exosomes derived from HT-29 colorectal cancer cells; assay: as above; settings: 4° C.
Description: as §3, §4, §5

[14] = tested on: exosomes derived from LLC mouse lung cancer cells; assay: as above; settings: 4° C.
Description: as §3, §4, §5

[15] = tested on: exosomes derived from normal HEK293 cells; assay: as above; settings: 4° C.
Description: as §3, §4, §5

[16] = tested on: exosomes derived from MDA-MB231 breast cancer cells; assay: as above; settings: 4° C.
Description: as §3, §4, §5

[17] = tested on: MDA-MB231 cell-derived exosome / MDA-MB231 cells; assay: confocal microscopy of peptide internalization with CD63-GFP exosomes; format: cell-based; settings: 10 uM TAMARA-conjugated peptide, 37° C., 1 hour
Method: In addition, an experiment was performed on exosomes derived from MDA-MB231 cells which were prepared to secrete exosomes showing green fluorescence by expressing CD63-GFP. GFP exosomes (green) and 10 uM TAMARA-conjugated peptide (red) were reacted with MDA-MB231 cells at 37° C. for 1 hour. Thereafter, after performing immobilization, DAPI nucleus staining, and mounting as described above, observation was followed using a confocal microscope (Zeiss, Oberkochen, Germany).

[18] = tested on: A549 tumor mice; assay: in vivo distribution imaging of DiD-labeled exosomes with or without ExoPep; design: species or system mouse; settings: without exosomes
Method: DiD-labeled A549 tumor mouse blood-derived exosomes and A549 cell-derived exosomes were reacted with ExoPep peptide, and image monitoring was performed for in vivo distribution. Tumor xenograft mice were prepared by subcutaneously implanting A549 cell suspension (5×10^6 cells) along with PBS into the right flank of 5-week-old female BALB/c nude mice. When the tumor size reached a volume of approximately 100-200 mm^3, the mice were anesthetized. A549 tumor mice was intravenously administered with DiD-labeled A549 tumor mouse blood-derived exosomes (mEXO) and a product obtained by reacting the exosomes (mEXO) with peptides (mEXO+ExoPep, n=3) as well as DiD-labeled A549 cell-derived exosomes (cEXO) and a product obtained by reacting the exosomes (cEXO) with peptides (cEXO+ExoPep, n=3). The inventors of the present disclosure used FITC-labeled control peptide and ExoPep (n=3) as controls. In vivo fluorescence images were analyzed using an IVIS imaging system (Caliper Life Sciences, Massachusetts, USA) at various time points (2, 4, 8, and 24 hours, respectively) after administration of DiD-labeled exosomes. In vitro fluorescence images of excised tumors and organs were collected 24 hours after administration. All major organs (liver, kidney, spleen, heart, and lung) having tumor tissues were separated, washed with PBS, and subjected to in vitro fluorescence analysis (n=3).

[19] = tested on: exosomes derived from normal HEK293 cells; assay: inhibition of exosome internalization by magnetic removal of peptide-bound exosomes; format: cell-based; settings: exosomes pretreated with biotin-labeled peptide, then removed with magnet
Method: as §2
On the other hand, internalization of exosomes into recipient cells was not reduced by pretreatment with the control peptide (sequence: NSSSVDK) (FIG. 5B). In addition, when a similar experiment was conducted on exosomes derived from normal HEK293 cells, the internalization of exosomes into recipient cells was not inhibited by the ExoPep peptide of an example embodiment of the present disclosure as well as the control peptide (FIG. 5C).

[20] = tested on: A549 tumor mouse blood-derived exosome; assay: flow cytometry binding of FITC-labeled ExoPep to blood-derived exosomes; settings: FITC-labeled peptide, CD63 antibody beads
Method: A549 cells were injected into BALB/c nude mice, blood was collected after the tumor grew, and exosomes were isolated using an exosome isolation kit. To measure the binding of the peptide to the exosomes by flow cytometry, the exosomes were labeled with CD63 antibody beads. As a control group, exosomes isolated from the blood of normal mice were used. The exosome-bead complex labeled with CD63 beads was blocked by a reaction with 1% BSA/PBS at room temperature for 30 minutes to reduce non-specific binding. After washing, the FITC-labeled ExoPep peptides were bound to the exosome-bead complex at 4° C. for 30 minutes. After washing again with PBS, the binding of the peptide to the exosome-bead complex was analyzed using a flow cytometer (ThermoFisher Scientific, USA) (FIG. 7A).

[21] = tested on: A549 cell-derived exosome / A549 cells; assay: confocal microscopy of peptide internalization with exosomes; format: cell-based, human; settings: 10 uM FITC-conjugated peptide, DiD-labeled exosomes, 37° C., 1 hour
Method: as §1

[22] = tested on: A549 tumor nude mouse model; assay: anticancer effect in the A549 tumor nude mouse model; format: in vivo
Method: To test anticancer effect using ExoPep-KLA in the A549 tumor nude mouse model, ExoPep-KLA peptides were pre-reacted with exosomes either alone or in vitro and then systemically administered intravenously for 3 weeks at the time points indicated in the protocol, and doxorubicin was administered once a week for 3 weeks (FIG. 14A).

[23] = tested on: A549 tumor nude mouse model; assay: co-administration of doxorubicin and ExoPep-KLA in the A549 tumor nude mouse model; format: in vivo
Method: In the A549 tumor nude mouse model, ExoPep-KLA peptide was administered three times a week at the indicated time points, and doxorubicin was administered once a week for three weeks. The timing of single and co-administration was shown in the treatment protocol (FIG. 16A).

O=C(/C=C/c1ccc(/C=C/C(=O)Nc2ccc(C3=NCCN3)cc2)cc1)Nc1ccc(C2=NCCN2)cc1 [GW4869]
internalization of exosomes and peptides bound therewith [1]: significantly reduced | cytotoxicity (CCK-8) [2]: did not show toxicity even at high concentration | exosome markers such as CD63, Alix, and Tsg101 [3]: greatly reduced

CRKVAKG [ExoPep]
internalization into recipient cell, tumor versus normal mouse blood-derived exosome [4]: internalized more | peptide observed in cells (internalization with exosomes) [5]: not observed in the cells | internalization of exosomes into recipient cells [6]: significantly inhibited | binding to exosomes compared to exosome-producing cell [7]: higher binding | hemolytic activity [8]: only low levels of hemolytic activity | binding to exosomes compared to exosome-producing cell [9]: very low binding, or no higher binding | binding to exosomes compared to exosome-producing cell [10]: very low binding, or no higher binding | binding to exosomes compared to exosome-producing cell [11]: higher binding | binding to exosomes compared to exosome-producing cell [12]: higher binding | binding to exosomes compared to exosome-producing cell [13]: very low binding, or no higher binding | binding to exosomes compared to exosome-producing cell [14]: very low binding, or no higher binding | binding to exosomes compared to exosome-producing cell [15]: very low binding, or no higher binding | binding to exosomes compared to exosome-producing cell [16]: higher binding | peptide observed in cells (internalization with exosomes) [17]: more of which were observed in the cells than the control peptide | fluorescence signal of FITC-labeled peptide itself [18]: low signals | internalization of exosomes into recipient cells [19]: not inhibited | binding to tumor mouse blood-derived exosome versus normal mouse blood-derived exosome [20]: bound better | peptide observed in cells (internalization with exosomes) [21]: observed along with the exosomes in A549 cells

NSSSVDK (NSSSVDK-{FITC′}) [control peptide, reference compound]
peptide observed in cells (internalization with exosomes) [5]: not observed in the cells | internalization of exosomes into recipient cells [6]: not reduced | fluorescence signal of FITC-labeled peptide itself [18]: low signals | internalization of exosomes into recipient cells [19]: not inhibited | peptide observed in cells (internalization with exosomes) [21]: not observed

COc1cccc2c1C(=O)c1c(O)c3c(c(O)c1C2=O)C[C@@](O)(C(=O)CO)C[C@@H]3O[C@H]1C[C@H](N)[C@H](O)[C@H](C)O1 [doxorubicin]
tumor growth ([22]; intravenous, 3 weeks): significantly inhibited | weight of tumor ([22]; mouse, in vivo): reduced | size of tumor ([23]; 2.5 mg/kg, compared to phosphate buffer): slightly reduced | size of tumor ([23]; 5 mg/kg): more strongly inhibited | metastatic nodules and microscopic nodules ([23]; 5 mg/kg, compared to buffer): significantly reduced

Reference: US20230295229A1, “PEPTIDE SELECTIVELY BINDING TO CANCER CELL-DERIVED EXOSOME, AND USES THEREOF” (KYUNGPOOK NATIONAL UNIVERSITY INDUSTRY-ACADEMIC COOPERATION …, priority 2020, published 2023)
